Laboratory results published in patent publication US5656651A, “Androgenic directed compositions” (Biophysica Inc., priority 1995, dated 1997).
“And” between values parts separate entries of the source, which are not always exact repeats. Equal values may be shown once. Read-outs that look alike come from different tables or passages of the source.

Tests used:
[1] = target: T1, human androgen receptors (Homo sapiens, UniProt P10275); assay: Transactivation assay, anti-androgenic potency, CV1-3.9.2 cells; type: cell-based; details: stimulation with 0.1 nM testosterone
T1 construct: expressed in transfected cells; host or cells: CV-1 monkey cells (clone CV1-3.9.2)
T1 sequence (P10275 whole entry): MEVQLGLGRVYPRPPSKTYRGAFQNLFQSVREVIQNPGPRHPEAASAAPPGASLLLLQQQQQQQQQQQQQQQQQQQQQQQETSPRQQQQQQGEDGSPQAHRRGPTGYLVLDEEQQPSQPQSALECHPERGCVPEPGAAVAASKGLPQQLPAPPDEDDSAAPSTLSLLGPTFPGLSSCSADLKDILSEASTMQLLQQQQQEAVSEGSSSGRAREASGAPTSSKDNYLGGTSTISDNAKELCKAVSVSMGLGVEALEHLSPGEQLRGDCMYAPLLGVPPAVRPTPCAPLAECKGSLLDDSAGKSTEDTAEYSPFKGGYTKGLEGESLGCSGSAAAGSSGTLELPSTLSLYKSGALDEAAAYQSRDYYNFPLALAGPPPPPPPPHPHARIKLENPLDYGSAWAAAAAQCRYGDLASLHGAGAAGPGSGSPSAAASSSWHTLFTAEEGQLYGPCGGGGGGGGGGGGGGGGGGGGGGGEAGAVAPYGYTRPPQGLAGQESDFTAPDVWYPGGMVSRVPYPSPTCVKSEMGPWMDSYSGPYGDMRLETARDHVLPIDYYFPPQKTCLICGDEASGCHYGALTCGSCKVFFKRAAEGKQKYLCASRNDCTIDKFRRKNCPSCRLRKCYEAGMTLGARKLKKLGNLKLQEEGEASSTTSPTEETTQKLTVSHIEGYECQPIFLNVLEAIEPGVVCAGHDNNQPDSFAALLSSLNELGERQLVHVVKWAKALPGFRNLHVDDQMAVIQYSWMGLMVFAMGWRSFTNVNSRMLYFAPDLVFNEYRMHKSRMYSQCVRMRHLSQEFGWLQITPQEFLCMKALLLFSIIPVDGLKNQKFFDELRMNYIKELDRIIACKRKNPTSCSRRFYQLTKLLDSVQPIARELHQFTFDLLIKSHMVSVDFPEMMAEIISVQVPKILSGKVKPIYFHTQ
Experimental: (§1) The androgenic and anti-androgenic activity of the current and novel compounds was tested in a specific assay described by Fuhrman et al. [J. Steroid Biochem. Molec. […] This assay uses CV-1 cells derived from monkeys transfected with human androgen receptors.

[2] = target: T1, human androgen receptors; assay: Androgen activity of anti-androgens in CVI-3.9.2 cells (CAT activity); type: cell-based
Experimental: as §1

[3] = tested on: DU-145 Human Prostate (receptor poor); assay: Inhibition of cell proliferation at 72 hours, DU-145; type: cell-based; details: DU-145, 72 hours
Experimental: (§2) All compounds were screened on a panel of normal and cancer human cell lines, including human prostate cancer cell lines, PC-3, DU-145, and LnCAP.
(§3) Cells (10^4 /well) were plated on 96 well plates with the following controls: no cells and toxic control (1×10^-3 M sodium dodecyl sulfate (SDS). The drug was diluted in ethanol and added directly to the wells. Plates were incubated at 37° C. under 5% carbon dioxide in sterile air, in a humidified incubator for 72 hours. A solution (50 μl of 2,3-bis-(methoxy-4-nitro-5-sulfophenyl)-5-[(phenylamino)carbonyl]-2H-tetrazolium hydroxide (XTT), 1 mg/mL) in phosphate buffered saline (PBS, 100 mM) was added to each well, In the presence of viable cells, this colorless clear solution is enzymatically transformed to give a pink coloration, read at 450 nm using a microplate reader (Molecular Devices Thermomax). The inhibition of cell growth was measured by hemocytometer, counting cell viability. (Table I)

[4] = tested on: Ln CAP Human Prostate (with androgen receptors); assay: Inhibition of cell proliferation at 72 hours, Ln CAP; type: cell-based; details: LNCaP
Experimental: as §2, §3

[5] = tested on: PC-3 Human Prostate (few androgen receptors); assay: Inhibition of cell proliferation at 72 hours, PC-3; type: cell-based; details: PC-3, 72 hours
Experimental: as §2, §3

[6] = tested on: MCF-7 Human Breast; assay: Inhibition of cell proliferation at 72 hours, MCF-7; type: cell-based; details: MCF7, MCF-7, 72 hours
Experimental: as §2, §3

[7] = tested on: MCF-7/ADR Human Breast (adriamycin resistant); assay: Inhibition of cell proliferation at 72 hours, MCF-7/ADR; type: cell-based; details: NCI/ADR-RES, MCF-7/ADR (adriamycin resistant)
Experimental: as §2, §3

[8] = tested on: Ovcar 3 Human Ovary; assay: Inhibition of cell proliferation at 72 hours, Ovcar 3; type: cell-based; details: Ovcar 3, 72 hours
Experimental: as §2, §3

[9] = tested on: Molt-4 Human T-cell Leukemia; assay: Inhibition of cell proliferation at 72 hours, Molt-4; type: cell-based; details: Molt-4, 72 hours
Experimental: as §2, §3

[10] = tested on: L-1210 Mouse Leukemia; assay: Inhibition of cell proliferation at 72 hours, L-1210; type: cell-based; details: L1210, L-1210, 72 hours
[11] = tested on: NH DF Normal Dermal Fibroblast; assay: Inhibition of cell proliferation at 72 hours, NH DF; type: cell-based; details: Homo sapiens, NHDF
Experimental: as §2, §3

[12] = tested on: HLF-1 Normal Lung Diploid; assay: Inhibition of cell proliferation at 72 hours, HLF-1; type: cell-based; details: Homo sapiens, HLF1
Experimental: as §2, §3

[13] = tested on: CHO Chinese Hamster Ovary; assay: Inhibition of cell proliferation at 72 hours, CHO; type: cell-based; details: Cricetulus griseus
[14] = tested on: PC-3 human cell line; assay: Relative growth inhibition after 6 days; type: cell-based; details: for activity at 10 µM: Homo sapiens, read-out: No. of cells remaining expressed as a % of control
Experimental: as §2
as §3, with “Plates were incubated at 37° C. under 5% carbon dioxide in sterile air, in a humidified incubator for 72 hours.” left out

[15] = tested on: panel of normal and cancer human cell lines; assay: Cytotoxicity screen on panel of normal and cancer cell lines; type: cell-based
Experimental: as §2, §3

[16] = tested on: androgen receptors; details: background statement; cited from earlier work
[17] = tested on: glucocorticoid receptors; details: background statement; cited from earlier work
[18] = tested on: progestin receptors; details: background statement; cited from earlier work
[19] = 10^-5 M, cell density 10^4/well

For `CC1(C)OCC(CN2C(=S)N(c3ccc(C#N)c(C(F)(F)F)c3)C(=O)C2(C)C)O1` (centres unmarked) [BP134, 4-[4,4-dimethyl-3-[2',2'-dimethyl-1',3'-dioxolane-4'-methyl)-5-oxo-2-thioxo-1-imidazolidinyl]-2-trifluoromethyl-benzonitrile], the IC50 [1] was 0.021 µM and the “CAT Activity” value ([2]; 1 μM) was 1600 cpm.
With `CC1(C)C(=O)N(c2ccc(C#N)c(C(F)(F)F)c2)C(=S)N1CC(O)CO` (centres unmarked) [BP135, 4-[3-(2',3'-dihydroxypropyl)-4,4-dimethyl-5-oxo-2-thioxo-1-imidazolidinyl]-2-trifluoromethyl-benzonitrile] the IC50 [1] was 0.158 µM and the “CAT Activity” value ([2]; 1 μM) was 1900 cpm.
For `CC(C)(C)OC(=O)NCCN1C(=S)N(c2ccc(C#N)c(C(F)(F)F)c2)C(=N)C1(C)C` [BP136, 4-[3-(2'-(N-t-butoxycarbonyl)-aminoethyl)-4,4-dimethyl-5-imino-2-thioxo-1-imidazolidinyl]-2-trifluoromethyl-benzonitrile], the IC50 [1] was 0.2 µM and the “CAT Activity” value ([2]; 1 μM) was 1800 cpm.
For `CC(C)(C)OC(=O)NCCN1C(=S)N(c2ccc(C#N)c(C(F)(F)F)c2)C(=O)C1(C)C` [BP137, 4-[3-(2'-N-(t-butoxycarbonyl)-aminoethyl)-4,4-dimethyl-5-oxo-2-thioxo-1-imidazolidinyl]-2-trifluoromethyl-benzonitrile], the IC50 [1] was 0.02 µM and the “CAT Activity” value ([2]; 1 μM) was 2000 cpm.
In the case of `CC1(C)C(=O)N(c2ccc(C#N)c(C(F)(F)F)c2)C(=S)N1CCN` [BP138, 4-[3-(2'-aminoethyl) 4,4-dimethyl-5-oxo-2-thioxo-1-imidazolidinyl]-2-trifluoromethyl-benzonitrile], the IC50 [1] is reported as 0.139 µM and the “CAT Activity” value ([2]; 1 μM) is reported as 1600 cpm.
In the case of `CC(=O)NCCN1C(=S)N(c2ccc(C#N)c(C(F)(F)F)c2)C(=O)C1(C)C` [BP139, 4-[3-(2'-N-acetylaminoethyl)-4,4-dimethyl-5-oxo-2-thioxo-1-imidazolidinyl]-2-trifluoromethyl-benzonitrile], the IC50 [1] is reported as 0.239 µM and the “CAT Activity” value ([2]; 1 μM) is reported as 1500 cpm.
With `CC1(C)OCC(CN2C(=S)N(c3ccc(C#N)c(C(F)(F)F)c3)C(=N)C2(C)C)O1` (centres unmarked) [BP163, 4-[4,4-dimethyl-3-(2',2'-dimethyl-1',3'-dioxolane-4'-methyl)-5-imino-2-thioxo-1-imidazolidinyl]-2-trifluoromethyl-benzonitrile] the IC50 [1] was 0.217 µM and the “CAT Activity” value ([2]; 1 μM) was 2100 cpm.
With `C=CCN1C(=S)N(c2ccc(C#N)c(C(F)(F)F)c2)C(=O)C1(C)C` [BP-82, 4-[4,4-dimethyl-5-oxo-3-(2'-propenyl)-2-thioxo-1-imidazolidinyl]-2-trifluoromethyl-benzonitrile] the IC50 [3] was 13.9 µM, the IC50 [4] was 66 µM and the IC50 [5] was 31.5 µM. The IC50 [6] was 50 µM, the IC50 [7] was 15.1 µM and the IC50 [8] was 96.5 µM. For the same molecule, the IC50 [9] was 48.8 µM, the IC50 [10] was 25 µM and the IC50 [11] was 91.7 µM. The IC50 [12] was 39 µM, the IC50 [13] was 34.5 µM and the activity at 10 µM [14, 19] was about 70%. For the same molecule, the “cytostatic effect in PC-3 human cell line” value ([14]; PC-3, Table II) was “cytostatic effect”, the IC50 [1] was about 0.0065 µM and the “CAT Activity” value ([2]; 1 μM) was 1300 cpm.
Molecule `CC(=O)O[C@H]1C(=O)[C@]2(C)[C@@H](OC(=O)NCCN3C(=S)N(c4ccc(C#N)c(C(F)(F)F)c4)C(=O)C3(C)C)C[C@H]3OC[C@@]3(OC(C)=O)[C@H]2[C@H](OC(=O)c2ccccc2)[C@]2(O)C[C@H](OC(=O)[C@H](O)[C@@H](NC(=O)c3ccccc3)c3ccccc3)C(C)=C1C2(C)C` [BP-196, 7-{imidazolidinyl-5",5"-dimethyl-4"-oxo-3"-[4"'-cyano-3'"-trifluoromethylphenyl-imidazolidinyl]-2"-thioxo-1"-ethylcarbamoxy}paclitaxel] has an IC50 [3] of 0.867 µM, an IC50 [4] of 0.131 µM and an IC50 [5] of 0.0372 µM. It also gave an IC50 [6] of 0.989 µM, an IC50 [7] of 10 µM and an IC50 [8] of 0.05 µM. It also gave an IC50 [9] of 0.147 µM, an IC50 [10] of 0.97 µM and an IC50 [11] of 0.107 µM. The IC50 [12] was 8.06 µM, the IC50 [13] was 8.76 µM and the “Observation (relative growth inhibition)” value ([14]; 10^-5 M, after 6 days, cell density 10^4/well) was “cytotoxic cell death”. For the same molecule, the activity at 10 µM [14, 19] was about 100% and the “toxicity vis-a-vis normal cells” value ([15]; normal cells) was “quite high”.
Molecule `C#CCN1C(=S)N(c2ccc(C#N)c(C(F)(F)F)c2)C(=O)C1(C)C` [BP-199, 4-[4,4-dimethyl-3-(2'-propynyl)-5-oxo-2-thioxo-1-imidazolidinyl]-2-trifluoromethyl-benzonitrile] has an IC50 [3] of 85.1 µM, an IC50 [4] of 0.82 µM and an IC50 [5] of 0.132 µM. For the same molecule, the IC50 [6] was 100 µM, the IC50 [7] was 10 µM and the IC50 [8] was over 100 µM. It also gave an IC50 [9] of over 100 µM, an IC50 [10] of 11 µM and an IC50 [11] of over 100 µM. The IC50 [12] was over 100 µM, the IC50 [13] was 12.8 µM and the activity at 10 µM [14, 19] was about 50%. For the same molecule, the IC50 [1] was 0.015 µM, the “cytotoxicity in human prostate cancer lines containing at least some androgen receptors” value ([15]; human prostate cancer lines) was “most cytotoxic” and the “cytotoxicity in a variety of other human transformed and normal cells” value ([15]; other human transformed and normal cells) was “low cytotoxicity”.
For `CC1(C)C(=O)N(c2ccc(C#N)c(C(F)(F)F)c2)C(=S)N1CCc1c[nH]cn1` [BP-213], the activity at 10 µM [14, 19] was about 40%.
For `CC(O)(CS(=O)(=O)c1ccc(F)cc1)C(=O)Nc1ccc(C#N)c(C(F)(F)F)c1` (centres unmarked) [Casodex], the “binding to androgen receptors (sufficiency for complete blockage)” value [16] is given as “do not bind sufficiently to androgen receptors to achieve their complete blockage”.
For `CC(=O)O[C@]1(C(C)=O)CC[C@H]2[C@@H]3C=C(Cl)C4=CC(=O)[C@@H]5C[C@@H]5[C@]4(C)[C@H]3CC[C@@]21C` [Cyproterone Acetate], the “binding to glucocorticoid receptors” value [17] is listed as “binds to the glucocorticoid and progestin receptors” and the “binding to progestin receptors” value [18] is listed as “binds to the glucocorticoid and progestin receptors”.
In the case of `C[C@]1(O)CC[C@H]2[C@@H]3CCC4=CC(=O)CCC4=C3C=C[C@@]21C` [R1881, reference compound], the “CAT Activity” value [2] is reported as 5400 cpm and 5600 cpm and 6700 cpm.
In the case of `CC1(C)C(=O)N(c2ccc(C#N)c(C(F)(F)F)c2)C(=S)N1CCCCO` [RU59063, 4-[4,4-dimethyl-3-(4-hydroxybutyl)-5-oxo-2-thioxo-1-imidazolidinyl]-2-trifluoromethyl-benzonitrile, reference compound], the IC50 [1] is reported as 0.023 µM and the “CAT Activity” value ([2]; 1 μM) is reported as 2600 cpm.
